Data: patent US11110098B2, “Methods and medicaments for the treatment of renal cell carcinoma” (University of Kansas, priority 2017, dated 2021)

Experiments:
Caki-1 cells [1] = assay: TUNEL assay for apoptosis in xenograft tumor sections; assay type: in vivo, Nu/Nu mice; details: OPC31260 IP, tolvaptan 120 mg/Kg oral, dDAVP 1 μg/Kg IP, daily 28 days
Experimental: (§1) Female Athymic Nude-Foxn1^nu mice (Nu/Nu mice), 7-8 weeks old and weighing ˜25 g were procured from Envigo/Harlan. All animal studies were carried out according to the protocols approved by the University of Kansas Medical Center Institutional Animal Care and Use Committee. Mice were subcutaneously injected on the right flank region with 1×10^6 Caki-1 cells in 100 μl of DMEM medium. One week after injection, palpable tumors appeared and tumor volume was measured with calipers following the formula, Tumor volume=(length×width)/2. Once the tumor volume reached ˜80-100 mm^3, mice were randomized into sub-groups based on the tumor volume. Animals were administered vehicle, OPC31260 (30 mg/Kg BWt.), OPC31260 (60 mg/Kg BWt) or dDAVP (1 μg/Kg BWt.) and vehicle (saline) by daily intraperitoneal injection, or tolvaptan (120 mg/Kg BWt. in 1% aqueous solution of hydroxypropyl methylcellulose-dose derived from previous study^31) or vehicle by daily oral gavage for 28 days. Body weights and tumor volumes were measured every alternate day. At the end of the study, mice were injected with BRDU (100 mg/Kg BWt. by IP) 90 minutes before sacrifice. Tumors were harvested, photographed and weighed. Tumors were flash frozen or paraffin embedded for further analysis.
TUNEL assays were performed to check apoptosis using the in situ Cell Death Detection Kit (Roche Applied Science, Indianapolis, Ind.). Briefly, slides with 5-μm tumor sections were treated to a TUNEL reaction mixture containing terminal deoxynucleotidyl transferase and nucleotides, including tetramethylrhodamine-labeled dUTP. Both Dapi stained and TUNEL-positive nuclei were counted as described for proliferating cell nuclear antigen. All images were captured using a Nikon 80i microscope (Tokyo, Japan) in the KUMC Imaging Center.

Caki-1 cells [2] = assay: Caki-1 xenograft tumor growth in nude mice; assay type: in vivo, Nu/Nu mice; details: OPC31260 30 and 60 mg/Kg
Experimental: as §1, with “One week after injection, palpable tumors appeared and tumor volume was measured with calipers following the formula, Tumor volume=(length×width)/2.” left out

786-O cells [3] = assay: Western blot of cell lysate, 786-O cells; assay type: cell-based, human; details: 24 h
Description: (§2) Tumors from mouse xenografts and cultured 786-O and Caki-1 cells were homogenized in SDS Laemmli buffer and loaded onto 10% SDS-polyacrylamide agarose gel electrophoresis gels, transferred to nitrocellulose membranes and blocked with 5% milk in TBST^32. Membranes were probed with primary antibody followed by wash and horseradish peroxidase secondary antibody application.

[4] = assay type: in vivo; details: OPC31260 30 and 60 mg/Kg, daily intraperitoneal, 28 days
Experimental: as §1

[5] = test system: pERK1/2, ERK1/2, pCREB, CREB, VEGF; assay: Immunoblotting of xenograft tumor lysates; assay type: in vivo, Nu/Nu mice; details: tolvaptan 120 mg/Kg oral
Experimental: as §1, §2

Caki-1 cells [6] = assay: Western blot of cell lysate, Caki-1 cells; assay type: cell-based, human; details: 48 h
Description: as §2

Caki-1 cells [7] = assay: MTT cell viability, Caki-1 cells; assay type: cell-based; details: Homo sapiens, 48 h, read-out: dose at which cell viability declined by 50%
Experimental: MTT assays were performed to measure cell viability. Briefly, exponentially growing 786-O and Caki-1 cells were seeded in 96 well plates. After 24 h, cells were incubated with different doses of OPC31260 for 48 h. The cells were then incubated in MTT solution (5 mg/mL) for 2 h, following which the MTT solution was removed and the intracellular purple formazan was solubilized in DMSO and quantified by spectrophotometry at […].

CCRCC = assay: Immunocompetent animal model of spontaneous CCRCC; assay type: in vivo, Vh1Δ/ΔTrp53Δ/ΔRb1Δ/Δ mice; details: treatment from 30 weeks after start of tamoxifen till 56 weeks
Description: The Vh1^Δ/ΔTrp53^Δ/ΔRb1^Δ/Δ mice (Harlander S et al, Nat Med 2017 23(7):869-877) can spontaneously develop CCRCC. Gene deletion of Vhl and tumor suppressors p53 and Rb 1 will be achieved using a Ksp1.3-CreERT2, tamoxifen-inducible system. For the studies, 6-week old Vh1^Δ/ΔTrp53^Δ/ΔRb1^Δ/ΔKsp1.3-CreERT2 mice will be treated with vehicle (saline) or tamoxifen for 14 days used to obtain wildtype control mice and Vh1^Δ/ΔTrp53^Δ/ΔRb1^Δ/Δ mice with RCC stumors. Starting 30 weeks after start of tamoxifen, the wildtype and Vh1^Δ/ΔTrp53^Δ/ΔRb1^Δ/Δ mice will be treated with vehicle, dDAVP, OPC31260, or tolvaptan till 56 weeks. The effect of V2R activation or inhibition will be monitored by MRI as well as by gross and pathological analysis and of kidneys at sacrifice.

786-O cells [8] = assay: Clonogenic assay, 786-O cells; assay type: cell-based, human; details: 48 h treatment, 10 days growth
Experimental: 786-O and Caki-1 cells were plated at very low density (1,000 cells/well) in six-well plates. After 16 h, cells were treated with different doses of OPC31260 and incubated for 48 h. Cells were washed and grown for 10 days until visible colonies formed. Colonies were fixed with 4% paraformaldehyde in PBS, stained with 0.25% crystal violet in 25% methanol, washed, air-dried and photographed. Crystal violet was dissolved in sodium citrate buffer (0.1M, 50% ethanol, pH 4.2) and absorbance was recorded at 590 nm.

[9] = OPC31260 30/60 mg/kg IP, dDAVP 1 μg/Kg IP, 28 days

Cc1ccccc1C(=O)Nc1ccc(C(=O)N2CCCC(N(C)C)c3ccccc32)cc1 (stereo not shown) [OPC31260, 5-(dimethylamino)-1-[4-(2-methylbenzamido)benzoyl]-2,3,4,5-tetrahydro-1H-benzazepine]
TUNEL staining of tumors compared to vehicle (Caki-1 cells [1]): increased | tumor volume (Caki-1 cells [2]; daily intraperitoneal injections, 28 days): failed to show a significant increase | tumors at sacrifice versus vehicle (tumor weights, FIG. 2) (Caki-1 cells [2]; daily intraperitoneal, after 28 days): significantly smaller than in the vehicle treatment group | pCREB levels (786-O cells [3]): dose-dependently reduced | pERK1/2 levels (786-O cells [3]): dose-dependently reduced | body weight of the mice [4]: did not significantly change | urine osmolality [4]: reduced urine osmolality in a dose dependent manner | CREB levels in tumor lysates ([5]; OPC31260 30/60 mg/kg IP, 28 days): reduced | pCREB levels in tumor lysates [5, 9]: reduced | pERK1/2 levels in tumor lysates [5, 9]: reduced | VEGF protein levels in tumors compared to vehicle ([5]; OPC31260 IP, dDAVP 1 μg/Kg IP, daily 28 days): significantly reduced | pCREB levels (Caki-1 cells [6]): dose-dependently reduced | pERK1/2 levels (Caki-1 cells [6]): dose-dependently reduced | IC50 (Caki-1 cells [7]): 5 to 10 µM | expected tumor burden / tumor growth (CCRCC): significantly suppress tumor growth | dose from which a significant decline in colony formation was observed (786-O cells [8]): 5 µM
